In publication PMC5218480 (PLoS ONE, 2017):

Tested on: MV-4-11 cells
Experiment: Gene expression microarray analysis (Affymetrix PrimeView) and GSEA
Assay type: cell-based, human
Parameters: RFU PODN (11730768_x_at) / Fold change /veh PODN (11730768_x_at) / RFU LINC00158 (11744669_a_at) / Fold change /veh LINC00158 (11744669_a_at) / RFU DUSP10 (11751237_a_at) / Fold change /veh DUSP10 (11751237_a_at) / RFU ID3 (11757404_x_at) / Fold change /veh ID3 (11757404_x_at) / RFU PLEKHG5 (11737974_s_at) / Fold change /veh PLEKHG5 (11737974_s_at) / RFU LRRC4B (11730491_at) / Fold change /veh LRRC4B (11730491_at) / RFU GIMAP4 (11747438_a_at) / Fold change /veh GIMAP4 (11747438_a_at) / RFU KRT8 (11758183_x_at) / Fold change /veh KRT8 (11758183_x_at) / RFU CNN1 (11734310_a_at) / Fold change /veh CNN1 (11734310_a_at) / RFU VPS37D (11726825_at) / Fold change /veh VPS37D (11726825_at) / RFU C10orf10 (11716522_x_at) / Fold change /veh C10orf10 (11716522_x_at) / RFU KIR2DL2 /// KIR2DL4 /// KIR2DL5A /// KIR2DL5B /// KIR2DS1 /// KIR2DS2 /// KIR2DS3 /// KIR2DS4 /// KIR3DL3 /// KIR3DL3 /// KIR3DS1 (11738374_at) / Fold change /veh KIR2DL2 /// KIR2DL4 /// KIR2DL5A /// KIR2DL5B /// KIR2DS1 /// KIR2DS2 /// KIR2DS3 /// KIR2DS4 /// KIR3DL3 /// KIR3DL3 /// KIR3DS1 (11738374_at) / RFU C1QL1 (11718748_at) / Fold change /veh C1QL1 (11718748_at) / RFU TMPRSS4 (11747572_a_at) / Fold change /veh TMPRSS4 (11747572_a_at) / RFU HAMP (11756126_x_at) / Fold change /veh HAMP (11756126_x_at) / RFU RNFT2 (11725882_a_at) / Fold change /veh RNFT2 (11725882_a_at) / RFU NR4A2 (11747474_a_at) / Fold change /veh NR4A2 (11747474_a_at) / RFU ABCC12 (11746883_a_at) / Fold change /veh ABCC12 (11746883_a_at) / RFU TMEM136 (11760407_x_at) / Fold change /veh TMEM136 (11760407_x_at) / RFU CLDN22 /// WWC2 (11732394_at) / Fold change /veh CLDN22 /// WWC2 (11732394_at) / RFU HLA-DPB1 (11760878_x_at) / Fold change /veh HLA-DPB1 (11760878_x_at) / RFU SPINT1 (11716480_a_at) / Fold change /veh SPINT1 (11716480_a_at) / RFU GAP43 (11754022_s_at) / Fold change /veh GAP43 (11754022_s_at) / RFU A4GNT (11735810_at) / Fold change /veh A4GNT (11735810_at) / RFU PRB3 (11715151_x_at) / Fold change /veh PRB3 (11715151_x_at) / RFU TUBB4B (11761932_at) / Fold change /veh TUBB4B (11761932_at) / RFU CAPN14 (11732068_a_at) / Fold change /veh CAPN14 (11732068_a_at) / RFU TMCC2 (11721928_a_at) / Fold change /veh TMCC2 (11721928_a_at) / RFU IRGQ (11745062_a_at) / Fold change /veh IRGQ (11745062_a_at) / RFU FAM174B (11720279_a_at) / Fold change /veh FAM174B (11720279_a_at) / RFU TMPRSS4 (11748680_a_at) / Fold change /veh TMPRSS4 (11748680_a_at) / RFU FAM212B (11763350_a_at) / Fold change /veh FAM212B (11763350_a_at) / RFU PLEKHG5 (11743358_a_at) / Fold change /veh PLEKHG5 (11743358_a_at) / RFU ZSCAN30 (11745921_a_at) / Fold change /veh ZSCAN30 (11745921_a_at) / RFU CMKLR1 (11741424_a_at) / Fold change /veh CMKLR1 (11741424_a_at) / RFU LOC101060620 /// MAPK8IP1 (11723275_at) / Fold change /veh LOC101060620 /// MAPK8IP1 (11723275_at) / RFU SPTSSB (11747773_x_at) / Fold change /veh SPTSSB (11747773_x_at) / RFU PRSS12 (11739890_at) / Fold change /veh PRSS12 (11739890_at) / RFU BIN1 (11741810_x_at) / Fold change /veh BIN1 (11741810_x_at) / RFU WNT11 (11732464_a_at) / Fold change /veh WNT11 (11732464_a_at) / RFU C10orf10 (11716521_a_at) / Fold change /veh C10orf10 (11716521_a_at) / RFU C5orf56 (11738089_at) / Fold change /veh C5orf56 (11738089_at) / RFU CYB561 (11721691_x_at) / Fold change /veh CYB561 (11721691_x_at) / RFU ANKRD19P (11752326_a_at) / Fold change /veh ANKRD19P (11752326_a_at) / RFU OR2T12 /// OR2T33 /// OR2T8 (11738714_s_at) / Fold change /veh OR2T12 /// OR2T33 /// OR2T8 (11738714_s_at) / RFU VCAN (11748164_a_at) / Fold change /veh VCAN (11748164_a_at) / RFU JSRP1 (11732532_at) / Fold change /veh JSRP1 (11732532_at) / RFU KRTAP10-11 (11738290_x_at) / Fold change /veh KRTAP10-11 (11738290_x_at) / RFU MYO3A (11730013_a_at) / Fold change /veh MYO3A (11730013_a_at) / RFU EBF3 (11725865_a_at) / Fold change /veh EBF3 (11725865_a_at) / RFU CAMK2N1 (11719241_x_at) / Fold change /veh CAMK2N1 (11719241_x_at) / RFU C5orf56 (11738088_a_at) / Fold change /veh C5orf56 (11738088_a_at) / RFU OLFML3 (11715873_a_at) / Fold change /veh OLFML3 (11715873_a_at) / RFU LOC100653217 /// NTM (11731650_a_at) / Fold change /veh LOC100653217 /// NTM (11731650_a_at) / RFU MAPK11 (11762145_a_at) / Fold change /veh MAPK11 (11762145_a_at) / RFU FIZ1 (11724087_x_at) / Fold change /veh FIZ1 (11724087_x_at) / RFU OASL (11726364_x_at) / Fold change /veh OASL (11726364_x_at) / RFU SOX15 (11748057_x_at) / Fold change /veh SOX15 (11748057_x_at) / RFU CD79A (11719716_a_at) / Fold change /veh CD79A (11719716_a_at) / RFU HIST1H1D (11736915_at) / Fold change /veh HIST1H1D (11736915_at) / RFU CASKIN2 (11723855_a_at) / Fold change /veh CASKIN2 (11723855_a_at) / RFU LOC730098 (11760151_x_at) / Fold change /veh LOC730098 (11760151_x_at) / RFU OR4N2 (11742367_at) / Fold change /veh OR4N2 (11742367_at) / RFU PRRT2 (11749266_a_at) / Fold change /veh PRRT2 (11749266_a_at) / RFU SNX32 (11753110_a_at) / Fold change /veh SNX32 (11753110_a_at) / RFU CDHR5 (11726645_a_at) / Fold change /veh CDHR5 (11726645_a_at) / RFU RCAN1 (11760418_a_at) / Fold change /veh RCAN1 (11760418_a_at) / RFU FAM167A (11723789_a_at) / Fold change /veh FAM167A (11723789_a_at) / RFU FAM26E (11764081_at) / Fold change /veh FAM26E (11764081_at) / RFU ISYNA1 (11749810_s_at) / Fold change /veh ISYNA1 (11749810_s_at) / RFU ACY1 (11761880_at) / Fold change /veh ACY1 (11761880_at) / RFU 11764098_at / Fold change /veh 11764098_at / RFU SAMD14 (11745864_x_at) / Fold change /veh SAMD14 (11745864_x_at) / RFU NPB (11741838_a_at) / Fold change /veh NPB (11741838_a_at) / RFU TMPRSS6 (11731388_a_at) / Fold change /veh TMPRSS6 (11731388_a_at) / RFU KRTAP10-2 (11738614_at) / Fold change /veh KRTAP10-2 (11738614_at) / RFU ARHGAP8 /// PRR5-ARHGAP8 (11727945_x_at) / Fold change /veh ARHGAP8 /// PRR5-ARHGAP8 (11727945_x_at) / RFU KRTAP5-7 /// NADSYN1 (11734609_at) / Fold change /veh KRTAP5-7 /// NADSYN1 (11734609_at) / RFU RASL12 (11751679_a_at) / Fold change /veh RASL12 (11751679_a_at) / RFU CDKN2B (11736163_a_at) / Fold change /veh CDKN2B (11736163_a_at) / RFU PRF1 (11729649_at) / Fold change /veh PRF1 (11729649_at) / RFU, ZNF638 /// ZNF638-IT1 / Fold change vs veh, ZNF638 /// ZNF638-IT1 / RFU, PANK3 / Fold change vs veh, PANK3 / RFU, SH3YL1 / Fold change vs veh, SH3YL1 / RFU, ZEB2 / Fold change vs veh, ZEB2 / RFU, NRIP1 / Fold change vs veh, NRIP1 / RFU, PTTG1IP / Fold change vs veh, PTTG1IP / RFU, CAPN2 / Fold change vs veh, CAPN2 / RFU, MED14 / Fold change vs veh, MED14 / RFU, SNORA58 / Fold change vs veh, SNORA58 / RFU, C1orf63 / Fold change vs veh, C1orf63 / RFU, LRRFIP1 / Fold change vs veh, LRRFIP1 / RFU, NDUFAF7 / Fold change vs veh, NDUFAF7 / RFU, SLC12A2 / Fold change vs veh, SLC12A2 / RFU, IBTK / Fold change vs veh, IBTK / RFU, ESF1 / Fold change vs veh, ESF1 / Fold change vs veh, TMEM50B / RFU, TAOK1 / Fold change vs veh, TAOK1 / RFU, ACBD3 / Fold change vs veh, ACBD3 / RFU, TMA16 / Fold change vs veh, TMA16 / RFU, RWDD3 / Fold change vs veh, RWDD3 / RFU, BCAT1 / Fold change vs veh, BCAT1 / RFU, EDEM3 / Fold change vs veh, EDEM3 / RFU, TMEM33 / Fold change vs veh, TMEM33 / RFU, WDR75 / Fold change vs veh, WDR75 / RFU, AHCTF1 / Fold change vs veh, AHCTF1 / RFU, TFRC / Fold change vs veh, TFRC / RFU, ZDHHC17 / Fold change vs veh, ZDHHC17 / RFU, NOM1 / Fold change vs veh, NOM1 / RFU, ARL8B / Fold change vs veh, ARL8B / RFU, ZBTB11 / Fold change vs veh, ZBTB11 / RFU, TAMM41 / Fold change vs veh, TAMM41 / RFU, KIAA1704 /// LOC100996395 / Fold change vs veh, KIAA1704 /// LOC100996395 / RFU, ING1 / Fold change vs veh, ING1 / RFU, TRMT61B / Fold change vs veh, TRMT61B / RFU, FUBP3 / Fold change vs veh, FUBP3 / RFU, TP53 / Fold change vs veh, TP53 / RFU, TNKS2 / Fold change vs veh, TNKS2 / RFU, ZFP14 / Fold change vs veh, ZFP14 / RFU, ACTR2 / Fold change vs veh, ACTR2 / RFU, PPP3R1 / Fold change vs veh, PPP3R1 / RFU, PIK3R1 / Fold change vs veh, PIK3R1 / RFU, HNRNPA1 / Fold change vs veh, HNRNPA1 / RFU, RNF170 / Fold change vs veh, RNF170 / RFU, ZNF28 / Fold change vs veh, ZNF28 / RFU, RNGTT / Fold change vs veh, RNGTT / RFU, OGT / Fold change vs veh, OGT / RFU, BRD1 / Fold change vs veh, BRD1 / RFU, MARS / Fold change vs veh, MARS / RFU, ZNF655 / Fold change vs veh, ZNF655 / RFU, FAHD1 / Fold change vs veh, FAHD1 / RFU, BDP1 / Fold change vs veh, BDP1 / RFU, LRRCC1 / Fold change vs veh, LRRCC1 / RFU, ARID1A / Fold change vs veh, ARID1A / RFU, ZNF146 / Fold change vs veh, ZNF146 / RFU, ZNF330 / Fold change vs veh, ZNF330 / RFU, GPN3 / Fold change vs veh, GPN3 / RFU, C9orf123 / Fold change vs veh, C9orf123 / RFU, N4BP2L2 / Fold change vs veh, N4BP2L2 / RFU, ARFIP1 / Fold change vs veh, ARFIP1 / RFU, FAM179B / Fold change vs veh, FAM179B / RFU, BCL10 / Fold change vs veh, BCL10 / RFU, UHRF1BP1L / Fold change vs veh, UHRF1BP1L / RFU, BET1 / Fold change vs veh, BET1 / RFU, CNOT2 / Fold change vs veh, CNOT2 / RFU, ZNF268 / Fold change vs veh, ZNF268 / Fold change vs veh, ZNF507 / RFU, DGCR2 / Fold change vs veh, DGCR2 / RFU, WDSUB1 / Fold change vs veh, WDSUB1 / Fold change vs veh, HSP90B1 /// MIR3652 / RFU, ADSS / Fold change vs veh, ADSS / RFU, GK / Fold change vs veh, GK / RFU, ZNF148 / Fold change vs veh, ZNF148 / RFU, TAF9 / Fold change vs veh, TAF9 / RFU, SLC1A5 / Fold change vs veh, SLC1A5 / RFU, SLMO2 / Fold change vs veh, SLMO2 / RFU, ABCC4 / Fold change vs veh, ABCC4 / RFU, LOC101060439 /// RAP1B / Fold change vs veh, LOC101060439 /// RAP1B / RFU, RFX7 / Fold change vs veh, RFX7 / RFU, GTPBP10 / Fold change vs veh, GTPBP10 / RFU, CNEP1R1 / Fold change vs veh, CNEP1R1 / RFU, BIVM-ERCC5 /// ERCC5 / Fold change vs veh, BIVM-ERCC5 /// ERCC5 / RFU, ILF3 / Fold change vs veh, ILF3 / RFU 11762660_at / Fold change /veh 11762660_at / RFU VCAN (11757783_s_at) / Fold change /veh VCAN (11757783_s_at) / RFU DDX43 (11728927_at) / Fold change /veh DDX43 (11728927_at) / RFU KRT8 (11758188_x_at) / Fold change /veh KRT8 (11758188_x_at) / RFU NKD1 (11759106_at) / Fold change /veh NKD1 (11759106_at) / RFU SRD5A1 (11742802_a_at) / Fold change /veh SRD5A1 (11742802_a_at) / RFU TPSAB1 /// TPSB2 (11721975_s_at) / Fold change /veh TPSAB1 /// TPSB2 (11721975_s_at) / RFU GSTM3 (11746129_a_at) / Fold change /veh GSTM3 (11746129_a_at) / RFU IL23R (11737362_x_at) / Fold change /veh IL23R (11737362_x_at) / RFU TMEM51 (11727254_a_at) / Fold change /veh TMEM51 (11727254_a_at) / RFU PIWIL2 (11732686_x_at) / Fold change /veh PIWIL2 (11732686_x_at) / RFU ORM1 (11744905_x_at) / Fold change /veh ORM1 (11744905_x_at) / RFU CCDC152 (11743942_at) / Fold change /veh CCDC152 (11743942_at) / RFU ECM1 (11717891_a_at) / Fold change /veh ECM1 (11717891_a_at) / RFU IL23R (11748794_a_at) / Fold change /veh IL23R (11748794_a_at) / RFU TNFAIP8L3 (11732012_x_at) / Fold change /veh TNFAIP8L3 (11732012_x_at) / RFU MBOAT4 (11741988_at) / Fold change /veh MBOAT4 (11741988_at) / RFU 11764193_at / Fold change /veh 11764193_at / RFU TMEM53 (11763286_at) / Fold change /veh TMEM53 (11763286_at) / RFU MAGEB2 (11727129_at) / Fold change /veh MAGEB2 (11727129_at) / RFU TMEM200A (11744735_a_at) / Fold change /veh TMEM200A (11744735_a_at) / RFU CCDC152 (11751479_a_at) / Fold change /veh CCDC152 (11751479_a_at) / RFU FAM211A (11726209_a_at) / Fold change /veh FAM211A (11726209_a_at) / RFU RGS16 (11746705_a_at) / Fold change /veh RGS16 (11746705_a_at) / RFU VCAN (11755009_s_at) / Fold change /veh VCAN (11755009_s_at) / RFU RHOB (11743442_s_at) / Fold change /veh RHOB (11743442_s_at) / RFU RGS16 (11720943_a_at) / Fold change /veh RGS16 (11720943_a_at) / RFU RGS16 (11720944_at) / Fold change /veh RGS16 (11720944_at) / RFU, VPS4B / Fold change vs veh, VPS4B / RFU, CREB1 / Fold change vs veh, CREB1 / RFU, DNAJC13 / Fold change vs veh, DNAJC13 / RFU, GNAQ / Fold change vs veh, GNAQ / RFU, CDK5R1 / Fold change vs veh, CDK5R1 / RFU, ZRANB3 / Fold change vs veh, ZRANB3 / RFU, CUL4A / Fold change vs veh, CUL4A / RFU, CCNY / Fold change vs veh, CCNY / RFU, UFL1 / Fold change vs veh, UFL1 / RFU, COG3 / Fold change vs veh, COG3 / RFU, DIAPH2 / Fold change vs veh, DIAPH2 / RFU, SKA2 / Fold change vs veh, SKA2 / RFU, AFF3 / Fold change vs veh, AFF3 / RFU, LMF1 / Fold change vs veh, LMF1 / RFU, IPO11 / Fold change vs veh, IPO11 / RFU, DFFB / Fold change vs veh, DFFB / RFU, FOXP1 / Fold change vs veh, FOXP1 / RFU, CARD8 / Fold change vs veh, CARD8 / RFU, STRN3 / Fold change vs veh, STRN3 / RFU, ADK / Fold change vs veh, ADK / RFU, RASSF2 / Fold change vs veh, RASSF2 / RFU, WIPF1 / Fold change vs veh, WIPF1 / RFU, LARP1B / Fold change vs veh, LARP1B / RFU, RASA1 / Fold change vs veh, RASA1 / RFU, RB1 / Fold change vs veh, RB1 / RFU, PPFIA1 / Fold change vs veh, PPFIA1 / RFU, MAT2A / Fold change vs veh, MAT2A / RFU, CCT5 / Fold change vs veh, CCT5 / RFU, WDR92 / Fold change vs veh, WDR92 / RFU, CUX1 / Fold change vs veh, CUX1 / RFU, TTC7A / Fold change vs veh, TTC7A / RFU, TMEM135 / Fold change vs veh, TMEM135 / RFU, DEPTOR / Fold change vs veh, DEPTOR / RFU, CPM / Fold change vs veh, CPM / RFU, DNAJB6 / Fold change vs veh, DNAJB6 / RFU, CACNA2D3 / Fold change vs veh, CACNA2D3 / RFU, DTX4 / Fold change vs veh, DTX4 / RFU, TFCP2 / Fold change vs veh, TFCP2 / RFU, GMCL1 /// GMCL1P1 / Fold change vs veh, GMCL1 /// GMCL1P1 / RFU, AEBP2 / Fold change vs veh, AEBP2 / RFU, SNHG1 /// SNORD22 /// SNORD25 /// SNORD26 /// SNORD27 /// SNORD28 /// SNORD29 /// SNORD31 / Fold change vs veh, SNHG1 /// SNORD22 /// SNORD25 /// SNORD26 /// SNORD27 /// SNORD28 /// SNORD29 /// SNORD31 / Fold change (Aza/veh), C12orf56 (ProbeSet 11735607_a_at) / Fold change (ACY-1035/veh), C12orf56 (ProbeSet 11735607_a_at) / Fold change (Aza/veh), FGFR1OP (ProbeSet 11751329_s_at) / Fold change (ACY-1035/veh), FGFR1OP (ProbeSet 11751329_s_at) / Fold change (Aza/veh), VPS36 (ProbeSet 11739960_a_at) / Fold change (ACY-1035/veh), VPS36 (ProbeSet 11739960_a_at) / RFU SYPL1 (11715823_x_at) / Fold change /veh SYPL1 (11715823_x_at) / RFU IGFBP7 (11715501_s_at) / Fold change /veh IGFBP7 (11715501_s_at) / RFU REEP3 (11722064_at) / Fold change /veh REEP3 (11722064_at) / RFU IGLL1 (11728026_x_at) / Fold change /veh IGLL1 (11728026_x_at): dose or concentration left out as unconfirmed
Settings: ProbeSet 11749645_x_at; LIST B

Nc1ncn([C@@H]2O[C@H](CO)[C@@H](O)[C@H]2O)c(=O)n1 [azacitidine] was tested, and the “Fold change vs veh, ZNF268” value was 0.97.
